Values quoted from earlier work, collected in US20210121528A1, “COMPOSITIONS FOR TREATING LUNG INFECTIONS BY AIRWAY ADMINISTRATION” (priority 2014, published 2021).
Like-named read-outs stand apart in the source and are kept apart here.

What was measured:
[1] = not given; remark: listed apart in the source
[2] = not given; remark: listed apart in the source
[3] = system: macrophages; details: in vitro incubation
[4] = system: lethal pneumococcal pneumonia; details: local delivery, mice
[5] = in vivo, po
[6] = system: polymorphonuclear leukocytes
[7] = system: methicillin-resistant Staphylococcus aureus and extended spectrum 13-lactamase (ESBL) enterobacteria; details: resistant bacteria
[8] = system: Veillonella and Fusobacterium; details: anaerobic genera
[9] = system: strains of organisms from the susceptible genera
[10] = system: Staphylococcus, Streptococcus, Neisseria, Escherichia, Proteus (indole-negative), Serratia, Salmonella, Shigella, Pseudomonas, Haemophilus, Vibrio, and …; details: aerobic genera
[11] = system: mammalian cells and organs
[12] = system: Prevotella; details: anaerobic genus
[13] = human, in vivo
[14] = system: Moraxella catarrhalis, Burkholderia cepacia, Mycobacterium spp. and Stenotrophomonas maltophilia

For `C[C@@H]1O[C@@H]1P(=O)(O)O` [Fosfomycin disodium], the “pH of 5% solution” value is listed as 9.0-10.5, the solubility in water [1] is listed as “highly soluble” and the “irritation of the stomach / oral tolerability” value ([2]; in vivo, po) is listed as “irritant to the stomach”.

For “GM-CSF: Monomeric protein of 127 amino-acid residues, colony-stimulating factor; SEQ ID NO: 2 mature human form”, the “time for transformation of a resting macrophage into a fully immunocompetent dendritic cell” value [3] is listed as “approximately 10 days” and the “protection from lethal pneumococcal pneumonia” value [4] is listed as “protects”.

In the case of `C[C@@H]1O[C@@H]1P(=O)(O)O.NC(CO)(CO)CO` [Fosfomycin trometamol], the “pH of 5% solution” value is given as 3.5-5.5, the bioavailability [5] is given as “about 40%” and the solubility in water [1] is given as “highly soluble”. For the same compound, the “irritation of the stomach / oral tolerability” value ([2]; oral) was “well tolerated”.

For `C[C@@H]1O[C@@H]1P(=O)(O)O` [Fosfomycin calcium monohydrate], the “pH of 0.4% solution” value (0.4% solution) is given as 8.1-9.6, the solubility in water [1] is given as “sparingly soluble” and the “irritation of the stomach / oral tolerability” value ([2]; in vivo, po) is given as “less irritating to the stomach”.

In the case of `C[C@@H]1O[C@@H]1P(=O)(O)O` [fosfomycin, [(2R,3S)-3-methyloxiran-2-yl]phosphonic acid], the “concentration in polymorphonuclear leukocytes relative to the extracellular fluid” value [6] is given as “twice”, the bactericidal activity [7] is given as “active” and the bactericidal activity [8] is given as “active”. The “synergistic effect, share of tested strains” value ([9]; early studies, various antibiotic combinations) was 70-100%, the synergy rates ([9]; subsequent more extensive studies) was 36-74% and the bactericidal activity [10] was “active”. For the same compound, the “toxicity to mammalian cells and organs” value [11] was “remarkably non-toxic”, the bactericidal activity [12] was “moderately active” and the eosinophilia [13] was 0.2%. The transient rashes [13] was 0.3 % of cases, the “transiently raised liver enzymes” value [13] was 0.3 % of cases and the bactericidal activity [14] was “less active”.
